Measured values from US20230192626A1 (Baylor College of Medicine, priority 2020, published 2023).

biological target: T1, Human sEH (hsEH) (Homo sapiens, UniProt P34913); test: fluorescence-based sEH biochemical inhibition assay (PHOME substrate); conditions: Table 1; hsEH 5 nM, PHOME 50 μM, 30° C.
T1 construct: purchased Cayman Chemicals
T1 sequence (P34913 1-555): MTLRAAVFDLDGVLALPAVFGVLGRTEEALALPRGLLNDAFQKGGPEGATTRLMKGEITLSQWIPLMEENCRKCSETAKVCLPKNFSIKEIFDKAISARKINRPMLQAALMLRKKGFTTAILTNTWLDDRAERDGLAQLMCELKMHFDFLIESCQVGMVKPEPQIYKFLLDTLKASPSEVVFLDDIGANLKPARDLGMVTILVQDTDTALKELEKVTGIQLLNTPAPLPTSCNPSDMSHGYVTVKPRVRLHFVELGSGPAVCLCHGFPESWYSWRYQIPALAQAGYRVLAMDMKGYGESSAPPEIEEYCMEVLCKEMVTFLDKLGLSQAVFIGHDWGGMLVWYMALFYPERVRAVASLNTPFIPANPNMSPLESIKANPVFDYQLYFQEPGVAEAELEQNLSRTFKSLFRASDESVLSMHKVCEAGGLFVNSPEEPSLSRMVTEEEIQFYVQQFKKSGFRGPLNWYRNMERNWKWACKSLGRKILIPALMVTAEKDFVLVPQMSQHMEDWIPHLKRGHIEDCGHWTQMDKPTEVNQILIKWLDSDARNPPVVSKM
Procedure: The benzimidazole-based compounds synthesized according to Example 1 were measured for activity. Using a fluorescence-based sEH biochemical inhibition assay, the IC50 value was measured for each benzimidazole-based compound. Human sEH (hsEH) and its substrate PHOME were purchased from Cayman Chemicals. IC50 values of hsEH inhibitors were determined by fluorescence. IC50 is defined as the concentration of the inhibitor that blocks 50% of the enzymatic activity. To a 96-well plate containing 10 μL enzyme (5 nM in water), 60 μL of H2O and 10 μL BisTris-HCl buffer (25 mM, pH 7.0) were added inhibitors with different concentrations. The mixture was incubated for 5 min at 30° C. prior to addition of 10 μL of PHOME substrate (50 μM). Fluorescence were measured at 30° C. with an excitation wavelength of 330 nm and an emission wavelength of 465 nm using a BioTek H1 plate reader. The IC50 values were calculated by non-linear regression fitting. The curve was generated from at least three separate runs, each in duplicates. Results are given as means and standard deviations. In Table 1, an IC50 value less than or equal to 1 μM is indicated as an “A.” an IC50 value from greater than 1 μM to less than 10 μM is indicated as a “B′” and an IC50 value of greater than or equal to 10 μM is indicated as a “C.”
Additional benzimidazole-based compounds as described herein were measured for activity according to the procedure outlined in Example 2. Briefly, using a fluorescence-based sEH biochemical inhibition assay, the IC50 value was measured for each benzimidazole-based compound.

IC50 [µM]	Compound
≥ 10	N[C@@H](c1ccccc1)c1nc2cc(F)c(F)cc2[nH]1 [Compound 1, (S)-(5,6-difluoro-1λ^2-benzo[d]imidazol-2-yl)(phenyl)methanamine]
≥ 10	C[C@H](N)c1nc2cc(F)c(F)cc2[nH]1 [Compound 2, (S)-1-(5,6-difluoro-1λ^2-benzo[d]imidazol-2-yl)ethan-1-amine]
1 to 10	CCCN(CCC)S(=O)(=O)c1ccc(-c2nc3cc(C)c(C)cc3[nH]2)cc1 [Compound 3, 4-(5,6-dimethyl-1H-benzo[d]imidazol-2-yl)-N,N-dipropylbenzenesulfonamide]
1 to 10	Cc1cc2nc(Nc3ccc(OC(F)(F)F)cc3)[nH]c2cc1C [Compound 4, 5,6-dimethyl-N-(4-(trifluoromethoxy)phenyl)-1H-benzo[d]imidazol-2-amine]
≤ 1	CCc1ccc(-c2nc3cc(C)c(C)cc3[nH]2)cc1 [Compound 5, 2-(4-ethylphenyl)-5,6-dimethyl-1H-benzo[d]imidazole]
1 to 10	Cc1cc2nc(Nc3ccc(C(C)(C)C)cc3)[nH]c2cc1C [Compound 6, N-(4-(tert-butyl)phenyl)-5,6-dimethyl-1H-benzo[d]imidazol-2-amine]
1 to 10	COc1ccc(Nc2nc3cc(C)c(C)cc3[nH]2)cc1OC [Compound 7, N-(3,4-dimethoxyphenyl)-5,6-dimethyl-1H-benzo[d]imidazol-2-amine]
≥ 10	Cc1cc2nc(-c3ccccc3O)[nH]c2cc1C [Compound 9, 2-(5,6-dimethyl-1H-benzo[d]imidazol-2-yl)phenol]
≥ 10	Cc1cc2nc(-c3ccc(F)cc3F)[nH]c2cc1C [Compound 10, 2-(2,4-difluorophenyl)-5,6-dimethyl-1H-benzo[d]imidazole]
≥ 10	Cc1cc2nc(Oc3ccc(Br)cc3)[nH]c2cc1C [Compound 11, 2-(4-bromophenoxy)-5,6-dimethyl-1H-benzo[d]imidazole]
≥ 10	Cc1cc2nc(Oc3ccc(OC(F)(F)F)cc3)[nH]c2cc1C [Compound 12, 5,6-dimethyl-2-(4-(trifluoromethoxy)phenoxy)-1H-benzo[d]imidazole]
≥ 10	O=C(Cc1ccccc1)Nc1nc2ccccc2[nH]1 [Compound 13, N-(1H-benzo[d]imidazol-2-yl)-2-phenylacetamide]
≥ 10	O=C(Nc1cc(C(F)(F)F)cc(C(F)(F)F)c1)Nc1nc2ccccc2[nH]1 [Compound 14, 1-(1H-benzo[d]imidazol-2-yl)-3-(3,5-bis(trifluoromethyl)phenyl)urea]
≥ 10	c1ccc(-c2nc3ccccc3[nH]2)c(-c2nc3ccccc3[nH]2)c1 [Compound 15, 1,2-bis(1H-benzo[d]imidazol-2-yl)benzene]
≤ 1	Fc1cc2nc(-c3ccc(C(F)(F)F)cc3)[nH]c2cc1F [Compound 16, 5,6-difluoro-2-(4-(trifluoromethyl)phenyl)-1H-benzo[d]imidazole]
1 to 10	Fc1cc2nc(-c3ccc(-c4ccccc4)cc3)[nH]c2cc1F [Compound 17, 2-([1,1′-biphenyl]-4-y)-5,6-difluoro-1H-benzo[d]imidazole]
≥ 10	Cc1cc2nc(C3CCN(C)CC3)[nH]c2cc1C [Compound 18, 5,6-dimethyl-2-(1-methylpiperidin-4-yl)-1H-benzo[d]imidazole]
≤ 1	Cc1cc2nc(-c3ccc(C(F)(F)F)cc3)[nH]c2cc1C [Compound 19, 5,6-dimethyl-2-(4-(trifluoromethyl)phenyl)-1H-benzo[d]imidazole]
≤ 1	Cc1cc2nc(-c3ccc(-c4ccccc4)cc3)[nH]c2cc1C [Compound 20, 2-([1,1′-biphenyl]-4-yl)-5,6-dimethyl-1H-benzo[d]imidazole]
1 to 10	Cc1ccc(-c2nc3cc(C)c(C)cc3[nH]2)cn1 [Compound 21, 5,6-dimethyl-2-(6-methylpyridin-3-yl)-1H-benzo[d]imidazole]

IC50 [µM]	Compound
1 to 10	Cc1cc2nc(-c3ccc(F)cn3)[nH]c2cc1C [Compound 22, 2-(5-fluoropyridin-2-yl)-5,6-dimethyl-1H-benzo[d]imidazole]
≥ 10	Cc1cc2nc(-c3ccc(=O)[nH]c3)[nH]c2cc1C [Compound 23, 5-(5,6-dimethyl-1H-benzo[d]imidazol-2-yl)pyridin-2(1H)-one]
1 to 10	COc1cc(-c2nc3cc(C)c(C)cc3[nH]2)ccn1 [Compound 24, 2-(2-methoxypyridin-4-yl)-5,6-dimethyl-1H-benzo[d]imidazole]
≥ 10	Cc1cc2nc(-c3ccccn3)[nH]c2cc1C [Compound 25, 5,6-dimethyl-2-(pyridin-2-yl)-1H-benzo[d]imidazole]
≤ 1	Cc1cc2nc(-c3ccc(C(C)(C)C)cc3)[nH]c2cc1C [Compound 26, 2-(4-(tert-butyl)phenyl)-5,6-dimethyl-1H-benzo[d]imidazole]
≤ 1	Cc1cc2nc(-c3cccc(C(C)(C)C)c3)[nH]c2cc1C [Compound 27, 2-(3-(tert-butyl)phenyl)-5,6-dimethyl-1H-benzo[d]imidazole]
≤ 1	Cc1cc2nc(-c3ccc4ccccc4c3)[nH]c2cc1C [Compound 28, 5,6-dimethyl-2-(naphthalen-2-yl)-1H-benzo[d]imidazole]
≥ 10	Cc1cc2nc(-c3ccncc3)[nH]c2cc1C [Compound 29, 5,6-dimethyl-2-(pyridin-4-yl)-1H-benzo[d]imidazole]
≥ 10	Cc1cc2nc(-c3cccnc3)[nH]c2cc1C [Compound 30, 5,6-dimethyl-2-(pyridin-3-yl)-1H-benzo[d]imidazole]
≥ 10	Cc1cc2nc(-c3ccnn3C)[nH]c2cc1C [Compound 31, 5,6-dimethyl-2-(1-methyl-1H-pyrazol-5-yl)-1H-benzo[d]imidazole]
≥ 10	Fc1cc2nc(-c3ccoc3)[nH]c2cc1F [Compound 32, 5,6-difluoro-2-(furan-3-yl)-1H-benzo[d]imidazole]
≥ 10	Oc1ccc(-c2nc3cc(F)c(F)cc3[nH]2)cc1 [Compound 33, 4-(5,6-difluoro-1H-benzo[d]imidazol-2-yl)phenol]
1 to 10	FC(F)(F)c1ccc(-c2nc3cc(Cl)c(Cl)cc3[nH]2)cc1 [Compound 34, 5,6-dichloro-2-(4-(trifluoromethyl)phenyl)-1H-benzo[d]imidazole]
≤ 1	CCc1ccc(-c2nc3cc(F)c(F)cc3[nH]2)cc1 [Compound 35, 2-(4-ethylphenyl)-5,6-difluoro-1H-benzo[d]imidazole imidazole]
1 to 10	FC(F)(F)c1ccc(-c2nc3ccccc3[nH]2)cc1 [Compound 36, 2-(4-(trifluoromethyl)phenyl)-1H-benzo[d]imidazole]
1 to 10	CCc1ccc(-c2nc3ccccc3[nH]2)cc1 [Compound 37, 2-(4-ethylphenyl)-1H-benzo[d]imidazole]
≥ 10	FC(F)(F)c1ccc(-c2nc3cc(Br)c(Br)cc3[nH]2)cc1 [Compound 38, 5,6-dibromo-2-(4-(trifluoromethyl)phenyl)-1H-benzo[d]imidazole]
1 to 10	CCc1ccc(-c2nc3cc(Br)c(Br)cc3[nH]2)cc1 [Compound 39, 5,6-dibromo-2-(4-ethylphenyl)-1H-benzo[d]imidazole]
1 to 10	CC(C)(C)c1ccc2[nH]c(-c3ccc(C(F)(F)F)cc3)nc2c1 [Compound 40, 5-(tert-butyl)-2-(4-(trifluoromethyl)phenyl)-1H-benzo[d]imidazole]
